Data published in patent US10570463B2, “Nucleic acid modifying agents and uses thereof” (BIOTIUM, INC., priority 2014, dated 2020).
“Also recorded” adds a separate entry of the source.

Columns and labels:
Staphylococcus aureus = conditions: samples collected by swabbing from surfaces; cited from earlier work
[1] = tested on: relatively short amplicons; conditions: cited from earlier work
swabbed S. epidermidis = assay: Viability PCR (dCt) in Staphylococcus epidermidis collected by swabbing; assay type: cell-based; conditions: live and heat-killed S. epidermidis dried on plastic and swabbed; FIG. 5
Description: As in Example 16, Staphylococcus epidermidis was cultured in nutrient broth (NB) overnight at 37° C. The following day, the absorbance of the cultures at 600 nm was measured and the cultures were diluted to OD600=1.0 in growth media. For dead cell samples, bacteria were placed in a 95° C. heat block for 5 minutes, and then allowed to return to room temperature. 1200 uL of live or dead bacteria were spread separately onto sterile plastic petri dishes and air-dried for four hours. To mimic a common method of bacterial sample collection, a sterile cotton swab was moistened with NB, swabbed on the plate and swirled in a tube containing 1200 uL NB. This process was repeated 3 times each for live and dead bacteria, until most of the bacteria from the plate had been transferred into the media. 400 uL of swabbed bacteria was pipetted into tubes, and either left untreated, treated with PMA dye, or treated with Compound 014, as described in Example 16. Viability PCR was performed and the effect of each dye was measured by determining the dCt. The dCt was calculated by subtracting the Ct of untreated sample from dye-treated sample. […] The dCt values are shown above each bar.

[2] = tested on: Staphylococcus epidermidis; assay: Viability PCR (dCt, 16S rDNA) after dye treatment and photolysis, cultured Staphylococcus epidermidis; assay type: cell-based; conditions: 50 uM dye, 3D; for dCt, modification of DNA in live cells: live S. epidermidis, 470 nm light 15 min, FIG. 1, 2B
Description: Escherichia coli, Salmonella enterica, and Bacillus subtilis were cultured in tryptic soy broth (TSB). Staphylococcus epidermidis was cultured in nutrient broth (NB). Bacteria were cultured overnight at 37° C. The following day, the absorbance of the cultures at 600 nm was measured and the cultures were diluted to OD600=1.0 in growth media. Bacteria cultures were pipetted into 1.5 mL screw-top tubes at 400 uL per tube. For dead cell samples, tubes were placed in a 95° C. heat block for 5 minutes, and then allowed to return to room temperature. PMA products (cat #40013 and 40019, Biotium) and selected compounds of the disclosure (104.1, 014, or 020, where indicated) were diluted to 2.5 mM in water, and then 8 uL was added to the bacterial culture for a final concentration of 50 uM. Cultures were incubated on a rocker in the dark at room temperature for 10 minutes, and then exposed to 470 nm wavelength light in the PMA-Lite LED device for 15 minutes. Samples were centrifuged at 5000×g for 10 minutes and the supernatant was aspirated off. DNA was then purified from bacterial pellets using the Qiagen Blood and Tissue kit and eluted in 100 uL elution buffer.
PCR was performed using the universal primers DG74 and RW01 which amplify a 370-bp region of the 16S rDNA. Forward Primer DG74 sequence: 5′-AGG AGG TGA TCC AAC CGC A-3′. Reverse Primer RW01 sequence: 5′-AACTGGAGGAAGGTGGGGAT-3′. The following PCR mix was prepared for each sample: 12.5 uL Fast EvaGreen Master Mix (Biotium), 1 uL 5 uM primer mix, 9.5 uL water, and 2 uL isolated bacterial DNA. […] 25 sec, 72° C., acquiring fluorescence after this step. Using the Rotor-Gene Q software, normalized fluorescence and Ct values were calculated. The change in Ct (dCt) caused by a dye was calculated by subtracting the Ct of the untreated bacteria from the Ct of the dye-treated bacteria.
(§1) Live Staphylococcus epidermidis (a gram-positive bacteria) was either left untreated, treated with one of two versions of commercial PMA products (cat #40013 and 40019, Biotium), or treated with a compound of the present disclosure (compound 104.1, 014, or 020). Viability PCR was performed and the effect of each dye was measured by determining the dCt. The dCt was calculated by subtracting the Ct of untreated sample from dye-treated sample. […]
as §1, with “Live or dead Bacillus subtilis (FIG. 2A) or” for “Live”, “(FIG. 2B) were” for “(a gram-positive bacteria) was”, “cat #40019,” for “40019,”, “Compound 104.1.” for “a compound of the present disclosure (compound 104.1, 014, or 020).”

[3] = tested on: Mycobacterium avium subspecies paratuberculosis (MAP); conditions: PMA qPCR; cited from earlier work
Jurkat cells [4] = assay: Viability staining of live and heat-killed Jurkat cells, flow cytometry; assay type: cell-based, human; conditions: 1 uM
Description: Jurkat cells were maintained in RPMI media supplemented with 10% fetal bovine serum, 10 mM HEPES, and 1 mM sodium pyruvate. Cells were counted and diluted to 1.0×10^6 cells/mL in growth media. Cells were pelleted by centrifugation at 350×g and resuspended in PBS. Half of the cells were heat-killed by incubation in a 56° C. water bath for 45 minutes. After they had cooled to room temperature, live and dead cells were combined in a 1:1 ratio, pelleted and washed once with PBS, and resuspended in PBS at 1.0×10^6 cells/mL. Aliquots of 1 mL were pipetted into 1.5 mL microcentrifuge tubes. Working in the dark, PMA and compound 104.1 were diluted to 1 mM in water. 1 uL of the indicated compound was added to 1 mL of cells for a final concentration of 1 uM. Cells were incubated in the dark, rocking, for 10 minutes, then exposed to light in the PMA-Lite for 15 minutes. Cells were transferred to FACS tubes and pelleted. Half of the tubes were placed at 4° C. in the dark (unfixed). […]
Stained cells were analyzed by flow cytometry on a BD LSRII. For detection of PMA and compound 104.1 staining, samples were excited with the 488 nm laser, and the signal was detected in the PE-Texas Red channel. Flow cytometry data was analyzed using FlowJo software from […]. […]

[5] = tested on: Salmonella serovar Enteritidis; conditions: cited from earlier work
Jurkat cells [6] = assay: Viability staining of live and heat-killed Jurkat cells, fluorescence microscopy; assay type: cell-based, human; conditions: Cy3 filter
Description: 1:1 mixtures of live and heat-killed Jurkat cells were prepared and treated with PMA, as described in Example 21. The cells were transferred to a black optical bottom 96-well plate and imaged on an Olympus IX71 inverted fluorescence microscope using a Cy3 filter cube and Retiga 2000R Fast 1394 digital CCD camera with 300 msec exposure time. Imaging results are provided in FIG. 7A-D. The stained cells were either left unfixed (FIGS. 7A and B) or fixed and permeabilized (FIGS. 7C and D). Fluorescence images (FIGS. 7A and C) show stained cells, while merged fluorescence/phase contrast images (FIGS. 7B and D) show stained and unstained cells.

Salmonella enterica = assay: Viability PCR (dCt, 16S rDNA) after dye treatment and photolysis, cultured Salmonella enterica; assay type: cell-based; conditions: 50 uM dye, compared with PMA, FIG. 3B
Description: (§2) Escherichia coli, Salmonella enterica, and Bacillus subtilis were cultured in tryptic soy broth (TSB). Staphylococcus epidermidis was cultured in nutrient broth (NB). Bacteria were cultured overnight at 37° C. The following day, the absorbance of the cultures at 600 nm was measured and the cultures were diluted to OD600=1.0 in growth media. Bacteria cultures were pipetted into 1.5 mL screw-top tubes at 400 uL per tube. For dead cell samples, tubes were placed in a 95° C. heat block for 5 minutes, and then allowed to return to room temperature. […]
(§3) PCR was performed using the universal primers DG74 and RW01 which amplify a 370-bp region of the 16S rDNA. […] 25 sec, 72° C., acquiring fluorescence after this step. Using the Rotor-Gene Q software, normalized fluorescence and Ct values were calculated. The change in Ct (dCt) caused by a dye was calculated by subtracting the Ct of the untreated bacteria from the Ct of the dye-treated bacteria.
(§4) Live or dead Escherichia coli (FIG. 3A), Salmonella enterica (FIG. 3B), Bacillus subtilis (FIG. 3C) or Staphylococcus epidermidis (FIG. 3D) were either left untreated, treated with PMA, or treated with Compound 014. Viability PCR was performed and the effect of each dye was measured by determining the dCt. The dCt was calculated by subtracting the Ct of untreated sample from dye-treated sample. […]

Bacillus subtilis = assay: Viability PCR (dCt, 16S rDNA) after dye treatment and photolysis, cultured Bacillus subtilis; assay type: cell-based; conditions: 50 uM dye, compared with PMA, FIG. 2A, 3C
Description: as §2, §3
as §1, with “Live or dead Bacillus subtilis (FIG. 2A) or” for “Live”, “(FIG. 2B) were” for “(a gram-positive bacteria) was”, “cat #40019,” for “40019,”, “Compound 104.1.” for “a compound of the present disclosure (compound 104.1, 014, or 020).”

Escherichia coli = assay: Viability PCR (dCt, 16S rDNA) after dye treatment and photolysis, cultured Escherichia coli; assay type: cell-based; conditions: 50 uM dye, compared with PMA, FIG. 3A
Description: as §2, §3, §4

Question: Which “determination of amount of living cells” value (Staphylococcus aureus) does the source give for CC[N+](C)(CC)CCC[n+]1c(-c2ccccc2)c2cc(N=[N+]=[N-])ccc2c2ccc(N)cc21 [PMA, propidium monoazide] here?
Answer: does not allow the determination of amount of living cells

Question: And the “effect of PMA treatment on amplification of short amplicons” value [1]?
Answer: not affected by PMA treatment

Question: What about the “live/dead discrimination by dCt” value (swabbed S. epidermidis) of the same molecule?
Answer: did not function well to discriminate live and dead

Question: And the “dCt, modification of DNA in live cells” value [2]?
Answer: causes some modification of DNA

Question: What about the “entry of dye into viable cells” value [3] of the same molecule?
Answer: found to enter viable MAP

Question: And the “staining of live and dead cells after fixation and permeabilization” value (Jurkat cells [4]; 2% formaldehyde, 0.1% Triton X-100, FIG. 6B, 6D)?
Answer: increase in staining of live cells (loss of specificity)

Question: And the “staining of live and dead cells, unfixed” value (Jurkat cells [4]; unfixed cells, 488 nm laser, PE-Texas Red channel, FIG. 6A, 6C)?
Answer: bright, specific staining of dead cells

Question: What about the “suppression of qPCR signal from killed bacteria” value ([5]; killed Salmonella serovar Enteritidis) of the same molecule?
Answer: ineffective in suppressing qPCR signal from the killed bacteria

Question: And the “entry of dye into viable cells” value ([5]; viable Salmonella serovar Enteritidis)?
Answer: found to enter viable Salmonella serovar Enteritidis

Question: What about the “fluorescence discrimination of stained and unstained cells, fixed and permeabilized” value (Jurkat cells [6]; fixed and permeabilized cells, FIG. 7C, 7D) of the same molecule?
Answer: PMA staining is retained after fixation, with clear discrimination between PMA-positive and PMA-negative cells

Question: What about the “fluorescence discrimination of stained and unstained cells, unfixed” value (Jurkat cells [6]; unfixed cells, FIG. 7A, 7B) of the same molecule?
Answer: greater difference in fluorescence intensity between PMA-positive and PMA-negative cells

Question: What does the source list for C[N+](C)(C)CCNC(=O)CCOCCOCCOCCOCCNC(=O)CCCCC[n+]1c(-c2ccccc2)c2cc(N)ccc2c2ccc(N=[N+]=[N-])cc21 [Compound 014]?
Answer: dCt, effect on dead cells (Salmonella enterica; heat-killed S. enterica): greater effect on dead cells; dCt, effect on live cells (Salmonella enterica; live S. enterica): less of an effect on live cells; dCt, effect on dead cells (Bacillus subtilis; heat-killed B. subtilis): greater effect on dead cells; dCt, effect on live cells (Bacillus subtilis; live B. subtilis): less of an effect on live cells; live/dead discrimination by dCt (swabbed S. epidermidis): showed a large difference between live and dead cells; dCt, effect on dead cells ([2]; heat-killed S. epidermidis, compared with PMA, FIG. 2B): greater effect on dead cells; dCt, modification of DNA in live cells [2]: little to none; also recorded: less of an effect on live cells; dCt, effect on dead cells (Escherichia coli; heat-killed E. coli): greater effect on dead cells; dCt, effect on live cells (Escherichia coli; live E. coli): less of an effect on live cells

Question: With [N-]=[N+]=Nc1ccc2c3ccc(N)cc3c(-c3ccccc3)[n+](CCCCCC(=O)NCCOCCOCCOCCOCCC(=O)N[C@@H](CS(=O)(=O)[O-])C(=O)O)c2c1 [Compound 020] as the molecule, how does the “dCt, modification of DNA in live cells” value [2] read?
Answer: little to none
